The record followed here is US10323060B2, “Benzoic acid derivatives of bile acid as FXR/TGR5 agonists and methods of use thereof” (ENANTA PHARMACEUTICALS, INC., priority 2016, dated 2019).

In this assay the target is human FXR (NR1H4) (Homo sapiens (Human), UniProt Q96RI1). The assay can be described thus: Human FXR (NR1H4) Assay (luciferase reporter, Indigo Bioscience kit). For Efficacy (%): efficacy normalized to CDCA set as 100%. The class given is cell-based. Conditions: for EC50: FXR agonistic potency range, CHO reporter cells expressing human NR1H4, 22 hours incubation; for Emax: read-out: Efficacy (%). The text has this: Assays Human FXR (NR1H4) Assay
Determination of a ligand mediated Gal4 promoter driven transactivation to quantify ligand binding mediated activation of FXR. FXR Reporter Assay kit purchased from Indigo Bioscience (Catalogue number: IB00601) to determine the potency and efficacy of compound developed by Enanta that can induce FXR activation. The principle application of this reporter assay system is to quantify functional activity of human FXR. The assay utilizes non-human mammalian cells, CHO (Chinese hamster ovary) cells engineered to express human NR1H4 protein (referred to as FXR). Reporter cells also incorporate the cDNA encoding beetle luciferase which catalyzes the substrates and yields photon emission. Luminescence intensity of the reaction is quantified using a plate-reading luminometer, Envision. Reporter Cells include the luciferase reporter gene functionally linked to an FXR responsive promoter. Thus, quantifying changes in luciferase expression in the treated reporter cells provides a sensitive surrogate measure of the changes in FXR activity. […] The assay is according to the manufacturer's instructions. In brief, the assay was performed in white, 96 well plates using final volume of 100 ul containing cells with different doses of compounds. Retrieve Reporter Cells from −80° C. storage. Perform a rapid thaw of the frozen cells by transferring a 10 ml volume of 37° C. cell recovery medium into the tube of frozen cells. Recap the tube of Reporter Cells and immediately place it in a 37° C. water bath for 5-10 minutes. Retrieve the tube of Reporter Cell Suspension from the water bath. Sanitize the outside surface of the tube with a 70% alcohol swab, and then transfer it into the cell culture hood. Dispense 90 μl of cell suspension into each well of the 96-well Assay Plate. Transfer the plate into 37° C. incubator, allowing the cells adherent to the bottom of the well. Dilute compounds in Dilution Plate (DP), and administrate to cells at Assay Plate (AP). DMSO content of the samples was kept at 0.2%. Cells were incubated for additional 22 hours before luciferase activities were measured. Thirty minutes before intending to quantify FXR activity, remove Detection Substrate and Detection Buffer from the refrigerator and place them in a low-light area so that they may equilibrate to room temperature. Remove the plate's lid and discard all media contents by ejecting it into an appropriate waste container. Gently tap the inverted plate onto a clean absorbent paper towel to remove residual droplets. Cells will remain tightly adhered to well bottoms. Add 100 μl of luciferase detection reagent to each well of the assay plate. Allow the assay plate to rest at room temperature for at least 5 minutes following the addition of LDR. Set the instrument (Envision) to perform a single 5 second “plate shake” prior to reading the first assay well. Read time may be 0.5 second (500 mSec) per well.
(In general: In a reporter assay the amount or activity of a reporter protein is the signal.)

For orientation: EC50 means the concentration that produces a half-maximal response.

SMILES strings stand for the structures.

Chain of human FXR (NR1H4) (Q96RI1 whole entry, the tested form may be a part): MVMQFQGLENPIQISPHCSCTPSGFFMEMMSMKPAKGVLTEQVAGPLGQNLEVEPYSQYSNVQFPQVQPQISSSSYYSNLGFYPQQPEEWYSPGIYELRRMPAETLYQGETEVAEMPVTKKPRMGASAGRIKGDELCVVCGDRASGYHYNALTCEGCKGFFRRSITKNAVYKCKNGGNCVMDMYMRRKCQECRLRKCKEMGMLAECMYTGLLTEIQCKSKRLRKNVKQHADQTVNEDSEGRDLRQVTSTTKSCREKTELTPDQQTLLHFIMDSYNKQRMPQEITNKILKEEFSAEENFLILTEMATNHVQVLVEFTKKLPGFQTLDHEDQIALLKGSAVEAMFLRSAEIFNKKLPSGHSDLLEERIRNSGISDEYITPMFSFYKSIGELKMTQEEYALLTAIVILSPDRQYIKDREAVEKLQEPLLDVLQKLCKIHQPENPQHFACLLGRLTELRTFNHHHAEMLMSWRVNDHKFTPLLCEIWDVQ

Regarding `CC[C@H]1[C@@H](O)[C@@H]2[C@H](CC[C@]3(C)[C@@H]([C@H](C)C/C=C/c4ccc(C(=O)OC)c(O)c4)CC[C@@H]23)[C@@]2(C)CC[C@@H](O)C[C@@H]12` [Example 12], the EC50 fell in the range of 1 to 10 µM and the Emax stood at 134%.

Turning to `CC[C@H]1[C@@H](O)[C@@H]2[C@H](CC[C@]3(C)[C@@H]([C@H](C)CCCc4ccc(C(C)C(=O)O)cc4)CC[C@@H]23)[C@@]2(C)CC[C@@H](O)C[C@@H]12` (stereo partly shown) [Example 17], the EC50 lay in the range of 1 to 10 µM and the Emax came to 261%.

`CC[C@H]1[C@@H](O)[C@@H]2[C@H](CC[C@]3(C)[C@@H]([C@H](C)C/C=C/c4ccc(C(=O)O)c(O)c4)CC[C@@H]23)[C@@]2(C)CC[C@@H](O)C[C@@H]12` [Example 13]: the EC50 lay within 0.1 to 1 µM and the Emax is 166%.

`CC[C@H]1[C@@H](O)[C@@H]2[C@H](CC[C@]3(C)[C@@H]([C@H](C)C/C=C/c4ccc(-c5nnn[nH]5)cc4)CC[C@@H]23)[C@@]2(C)CC[C@@H](O)C[C@@H]12` [Example 24]: the EC50 lay within 1 to 10 µM and the Emax was determined as 234%.

`CC[C@H]1[C@@H](O)[C@@H]2[C@H](CC[C@]3(C)[C@@H]([C@H](C)C/C=C/c4ccccc4C(=O)O)CC[C@@H]23)[C@@]2(C)CC[C@@H](O)C[C@@H]12` [Example 2]: the concentration for a half-maximal effect (EC50) was less than 0.1 µM and the Emax amounted to 313%.

On to `CC[C@H]1[C@@H](O)[C@@H]2[C@H](CC[C@]3(C)[C@@H]([C@H](C)Cc4nc5c(C(=O)O)cccc5o4)CC[C@@H]23)[C@@]2(C)CC[C@@H](O)C[C@@H]12` [Example 7], for which the EC50 was in the range of 0.1 to 1 µM and the Emax was 195%.

In the case of `CC[C@H]1[C@@H](O)[C@@H]2[C@H](CC[C@]3(C)[C@@H]([C@H](C)CCCn4nnc(CC(=O)O)n4)CC[C@@H]23)[C@@]2(C)CC[C@@H](O)C[C@@H]12` [Example 8], the EC50 fell in the range of 1 to 10 µM and the Emax was 29%.

For `CC[C@H]1[C@@H](O)[C@@H]2[C@H](CC[C@]3(C)[C@@H]([C@H](C)Cc4nc5cccc(C(=O)O)c5[nH]4)CC[C@@H]23)[C@@]2(C)CC[C@@H](O)C[C@@H]12` [Example 32], the EC50 was 1 to 10 µM and the Emax came out at 24%.

Regarding `CC[C@H]1[C@@H](O)[C@@H]2[C@H](CC[C@]3(C)[C@@H]([C@H](C)C/C=C/c4ccc(C(=O)O)cc4)CC[C@@H]23)[C@@]2(C)CC[C@@H](O)C[C@@H]12` [Example 19], the EC50 was 0.1 to 1 µM and the Emax came to 244%.

`CC[C@H]1[C@@H](O)[C@@H]2[C@H](CC[C@]3(C)[C@@H]([C@H](C)Cc4nc5cccc(C(=O)OC)c5[nH]4)CC[C@@H]23)[C@@]2(C)CC[C@@H](O)C[C@@H]12` [Example 31]: the EC50 fell in the range of 1 to 10 µM and the Emax turned out to be 34%.

Take `CC[C@H]1[C@@H](O)[C@@H]2[C@H](CC[C@]3(C)[C@@H]([C@H](C)Cc4nc5c(C(=O)OC)cccc5o4)CC[C@@H]23)[C@@]2(C)CC[C@@H](O)C[C@@H]12` [Example 6]: the EC50 is 1 to 10 µM and the Emax was 131%.

For the molecule `CC[C@H]1[C@@H](O)[C@@H]2[C@H](CC[C@]3(C)[C@@H]([C@H](C)C/C=C/c4ccccc4-c4nnn[nH]4)CC[C@@H]23)[C@@]2(C)CC[C@@H](O)C[C@@H]12` [Example 30], the EC50 lay within 0.1 to 1 µM and the Emax is 332%.

In the case of `CC[C@H]1[C@@H](O)[C@@H]2[C@H](CC[C@]3(C)[C@@H]([C@H](C)C/C=C/c4ccccc4C#N)CC[C@@H]23)[C@@]2(C)CC[C@@H](O)C[C@@H]12` [Example 29], the concentration for a half-maximal effect (EC50) fell in the range of 1 to 10 µM and the Emax stood at 210%.

With `CC[C@H]1[C@@H](O)[C@@H]2[C@H](CC[C@]3(C)[C@@H]([C@H](C)CCOc4ccc(F)cc4C(=O)O)CC[C@@H]23)[C@@]2(C)CC[C@@H](O)C[C@@H]12` [Example 35], the concentration for a half-maximal effect (EC50) was in the range of 0.1 to 1 µM and the Emax came to 203%.

As to `CC[C@H]1[C@@H](O)[C@@H]2[C@H](CC[C@]3(C)[C@@H]([C@H](C)C/C=C/c4ccc(F)cc4C(=O)O)CC[C@@H]23)[C@@]2(C)CC[C@@H](O)C[C@@H]12` [Example 25], the Emax was found to be 376%.

Take `CC[C@H]1[C@@H](O)[C@@H]2[C@H](CC[C@]3(C)[C@@H]([C@H](C)CCCc4ccccc4C(=O)O)CC[C@@H]23)[C@@]2(C)CC[C@@H](O)C[C@@H]12` [Example 3]: the EC50 was in the range of 0.1 to 1 µM and the Emax was determined as 352%.

On to `CC[C@H]1[C@@H](O)[C@@H]2[C@H](CC[C@]3(C)[C@@H]([C@H](C)CCCn4nnnc4CC(=O)O)CC[C@@H]23)[C@@]2(C)CC[C@@H](O)C[C@@H]12` [Example 9], for which the EC50 fell in the range of 1 to 10 µM and the Emax was determined as 172%.

Regarding `CC[C@H]1[C@@H](O)[C@@H]2[C@H](CC[C@]3(C)[C@@H]([C@H](C)CCCc4ccc(C(=O)O)c(O)c4)CC[C@@H]23)[C@@]2(C)CC[C@@H](O)C[C@@H]12` [Example 14], the EC50 is 1 to 10 µM and the Emax stood at 232%.

On to `CC[C@H]1[C@@H](O)[C@@H]2[C@H](CC[C@]3(C)[C@@H]([C@H](C)CCCc4cc(F)c(O)c(F)c4)CC[C@@H]23)[C@@]2(C)CC[C@@H](O)C[C@@H]12` [Example 5], for which the concentration giving a half-maximal response (EC50) lay in the range of 1 to 10 µM and the Emax was 271%.

With `CC[C@H]1[C@@H](O)[C@@H]2[C@H](CC[C@]3(C)[C@@H]([C@H](C)CC4CC4c4ccc(C(=O)O)cc4)CC[C@@H]23)[C@@]2(C)CC[C@@H](O)C[C@@H]12` (stereo partly shown) [Example 34], the EC50 lay in the range of 1 to 10 µM and the Emax was found to be 195%.

Take `CC[C@H]1[C@@H](O)[C@@H]2[C@H](CC[C@]3(C)[C@@H]([C@H](C)C/C=C/c4ccc(C(C)C(=O)O)cc4)CC[C@@H]23)[C@@]2(C)CC[C@@H](O)C[C@@H]12` (stereo partly shown) [Example 16]: the EC50 lay in the range of 1 to 10 µM and the Emax worked out at 248%.

Regarding `CC[C@H]1[C@@H](O)[C@@H]2[C@H](CC[C@]3(C)[C@@H]([C@H](C)CC4CC4c4ccccc4C(=O)O)CC[C@@H]23)[C@@]2(C)CC[C@@H](O)C[C@@H]12` (stereo partly shown) [Example 10], the EC50 was 0.1 to 1 µM and the Emax is 252%.

`CC[C@H]1[C@@H](O)[C@@H]2[C@H](CC[C@]3(C)[C@@H]([C@H](C)CCCc4ccc(C(=O)O)cc4)CC[C@@H]23)[C@@]2(C)CC[C@@H](O)C[C@@H]12` [Example 20]: the 50% effective concentration (EC50) was in the range of 1 to 10 µM and the Emax stood at 266%.

As to `CC[C@H]1[C@@H](O)[C@@H]2[C@H](CC[C@]3(C)[C@@H]([C@H](C)CCCc4cccc(C(=O)O)c4)CC[C@@H]23)[C@@]2(C)CC[C@@H](O)C[C@@H]12` [Example 23], the EC50 was in the range of 1 to 10 µM and the Emax was determined as 292%.

For the molecule `CC[C@H]1[C@@H](O)[C@@H]2[C@H](CC[C@]3(C)[C@@H]([C@H](C)C/C=C/c4cccc(C(=O)O)c4)CC[C@@H]23)[C@@]2(C)CC[C@@H](O)C[C@@H]12` [Example 22], the EC50 fell in the range of 1 to 10 µM and the Emax was 195%.

As for `CC[C@H]1[C@@H](O)[C@@H]2[C@H](CC[C@]3(C)[C@@H]([C@H](C)C/C=C/c4cccc(C(=O)OC)c4)CC[C@@H]23)[C@@]2(C)CC[C@@H](O)C[C@@H]12` [Example 21], the EC50 fell in the range of 1 to 10 µM and the Emax stood at 92%.

For the molecule `CC[C@H]1[C@@H](O)[C@@H]2[C@H](CC[C@]3(C)[C@@H]([C@H](C)CC4CC4c4cccc(C(=O)O)c4)CC[C@@H]23)[C@@]2(C)CC[C@@H](O)C[C@@H]12` (stereo partly shown) [Example 33], the half-maximal effective concentration (EC50) was in the range of 1 to 10 µM and the Emax was 229%.

Regarding `CC[C@H]1[C@@H](O)[C@@H]2[C@H](CC[C@]3(C)[C@@H]([C@H](C)CCCc4ccc(F)cc4C(=O)O)CC[C@@H]23)[C@@]2(C)CC[C@@H](O)C[C@@H]12` [Example 26], the EC50 is 0.1 to 1 µM and the Emax was 256%.

Take `CC[C@H]1[C@@H](O)[C@@H]2[C@H](CC[C@]3(C)[C@@H]([C@H](C)CCOc4ccccc4C(=O)O)CC[C@@H]23)[C@@]2(C)CC[C@@H](O)C[C@@H]12` [Example 11]: the Emax came to 388%.

As for `CC[C@H]1[C@@H](O)[C@@H]2[C@H](CC[C@]3(C)[C@@H]([C@H](C)C/C=C/c4cnccc4C(=O)O)CC[C@@H]23)[C@@]2(C)CC[C@@H](O)C[C@@H]12` [Example 28], the concentration giving a half-maximal response (EC50) fell in the range of 0.1 to 1 µM and the Emax was 300%.
